Experimental data taken from PMC10761660, “Preclinical evaluation of an ^18F-labeled N^ε-acryloyllysine piperazide for covalent targeting of transglutaminase 2” (EJNMMI Radiopharmacy and Chemistry, 2024).
Where “and” joins values, the source holds several entries; their conditions need not be identical. Equal values may be shown once. Entries after “also recorded” stand apart in the source; their conditions may differ. Read-outs that look alike come from different tables or passages of the source.

What was measured:
[1] = parameters: method as in Wodtke et al. [2021]; conditions: ref Wodtke et al. [2021]; cited from earlier work
[2] = Metabolic stability and arterial blood clearance in a normal Wistar rat; assay type: in vivo; conditions: for c02: i.v. 5.27 nmol; for half-life / Vd / clearance / k el: male, iv, 5.27 nmol; for half-life / Vd / clearance: Wistar, rat; for clearance: plasma
Experimental: The following procedure was performed as recently published (Laube et al. [2020]). For assessing the in vivo stability, [^18F]7b (69.8 MBq corresponding to 5.27 nmol in 0.5 mL 0.9% NaCl with 5% ethanol (v/v)) was injected i.v. into a male Wistar rat (body weight 170 g) under desflurane anesthesia (10% desflurane in 30% oxygen/air, v/v). Using a catheter, blood samples from femoral artery were taken at 1, 3, 5, 10, 20, 30, 60, and 120 min p.i. The resulting loss of volume was compensated by i.v. injection of E153. Plasma was separated by centrifugation (3 min; 13,000 × g) followed by precipitation of plasma proteins with ice-cold Supersol (EtOH 20% (v/v), Triton X-100 0.5% (v/v), EDTA 5 mM, o-Phenanthroline 0.5 mM, Saponin 0.1% (w/v)). Clear supernatant separated by a second centrifugation step (3 min; 13,000 × g) was analyzed by radio-HPLC (Hewlett Packard Series 1100 equipped with a γ-detector (Raytest Ramona), Zorbax SB-C18, 300 Å, 4 μm, 250 × 9.4 mm (Agilent), eluent A, 0.1% (v/v) trifluoroacetic acid in H2O; eluent B, 0.1% (v/v) trifluoroacetic acid in CH3CN). Gradient elution was performed using 95% eluent A for 5 min, 95% eluent A to 95% eluent B in 10 min, 95% eluent B for 5 min, and 95% eluent B to 95% eluent A in 5 min, 3 mL/min, 50 °C. The clear supernatant was also analyzed by radio-TLC using reversed-phase TLC plates (ALUGRAM RP-18W/UV254 from Macherey–Nagel, Düren, Germany) with a mobile phase of 50% CH3CN in water containing 0.1% trifluoroacetic acid. For total protein precipitation at 5 and 60 min p.i., plasma samples were diluted with twice the volume of 15% trichloroacetic acid (TCA) in water instead of Supersol. Clear supernatant was separated by centrifugation (3 min; 13,000 × g) and analyzed as described above.
The measured activity concentrations (decay-corrected) in the blood samples of the Wistar rat were transformed into concentrations of 7b by taking the molar activity of [^18F]7b into account. These values were corrected by the fractions of intact [^18F]7b as analyzed by radio-HPLC or radio-TLC. These corrected concentrations were plotted against the time and analysis was performed by nonlinear regression according to two-phase decay as implemented in GraphPad Prism (Plateau was set to 0, Fig. 3B). However, for derivation of pharmacokinetic parameters, the corrected concentrations were converted to their log values and plotted against the time (semi-logarithmic plot, see inset in Fig. 3B). By linear regression of the data from 3 to 30 min, values for c02 (putative concentration of 7b at the beginning of the elimination phase) and kel (elimination rate constant) were derived. C02 was obtained as antilog of the intercept at the y-axis and kel represents the slope of the line. By knowing these two parameters as well as the applied dose (D = 5.27 nmol), the apparent volume of distribution (VD) and the plasma clearance (CL) was calculated using equations 7 and 8 (Freissmuth et al. [2016]).7 VD=D/c02 8 CL=kβ×VD

[3] = system: A375-hS100A4 tumor xenograft (TGase 2 +); assay: Ex vivo biodistribution in tumor-bearing mice (A375-hS100A4); parameters: species or system mice (Rj:NMRI-Foxn1 nu/nu)
Experimental: For biodistribution studies in tumor-bearing mice, a number of 5 × 10^6 A375-hS100A4 or MeWo cells were resuspended in 100 µL PBS and injected subcutaneously into nude mice (Rj:NMRI-Foxn1 nu/nu). Tumor growth was monitored three times per week using caliper measurements. The injection of [^18F]7b and subsequent steps were performed as described above.

[4] = Ex vivo biodistribution in normal mice; parameters: species or system mice (Rj:NMRI-Foxn1 nu/nu); conditions: i.v., control conditions
Experimental: For biodistribution studies in normal mice, [^18F]7b (0.57 ± 0.03 MBq corresponding to 27 ± 1 pmol in 0.2 mL 0.9% NaCl with a maximum of 10% ethanol (v/v)) was injected i.v. into nude mice (Rj:NMRI-Foxn1 nu/nu, Janvier Laboratories, Le Genest-Saint-Isle, France, body weight 27.7 ± 3.4 g) without (control conditions) or with co-injection of ketoconazole (3 mg/animal). A stock solution of ketoconazole (141 mM) was prepared in ethanol/Tween-80 (1:1, v/v) by shaking over night at 45 °C. This solution was diluted with 0.9% NaCl (1:4, v/v) prior injection. The animals were sacrificed at 5 and 60 min p.i. by CO2 inhalation and cervical dislocation. Organs and tissues of interest were excised, weighed, and radioactivity was determined using the Wizard™3’’ gamma counter. Activity in selected organs and tissues was expressed as % injected dose per weight (% ID/g) or % injected dose (% ID).

[5] = whole blood (arterial), radio-HPLC

C=CC(=O)NCCCCC(NC(=O)Cc1ccccc1)C(=O)N1CCN(c2cccc([18F])n2)CC1 (centres unmarked) [[^18F]7b]
logD7.4 [1]: 2.1
fraction of unmodified [^18F]7b in both blood components ([2]; 20 min p.i., plasma and erythrocytes): > 40%
residual intact [^18F]7b in intestinal content ([2]; 120 min (2 h) p.i., radio-HPLC): 7%
residual intact [^18F]7b in urine ([2]; 120 min (2 h) p.i., radio-HPLC): 8%
binding of ^18F-activity to plasma proteins ([2]; ex vivo plasma, protein precipitation): not protein-bound; also recorded: quite low
c02 ([2]; intact fraction by radio-HPLC): 22.4 nM
c02 ([2]; intact fraction by radio-TLC): 18.4 nM
terminal t1/2 (elimination half-life) ([2]; i.v., radio-HPLC): 17 min
half-life ([2]; arterial blood, i.v., radio-TLC, read-out: terminal t1/2): 16 min
Vd ([2]; arterial blood, radio-HPLC): 0.235 L
Vd ([2]; arterial blood, radio-TLC): 0.287 L and 1.69 L/kg
clearance ([2]; i.v., radio-HPLC data, read-out: plasma clearance (plasma CL)): 56 mL/min/kg
clearance ([2]; i.v., radio-HPLC, read-out: Plasma CL): 9.5 mL/min and 56 mL/min/kg
clearance ([2]; i.v., radio-TLC, read-out: Plasma CL): 12.6 mL/min and 74 mL/min/kg
half-life ([2]; whole blood (arterial), i.v., radio-HPLC, read-out: terminal t1/2 (elimination half-life)): 17.2 min
Vd [2, 5]: 1.38 L/kg
k el ([2]; arterial blood, radio-TLC): 0.000733 s⁻¹
k el [2, 5]: 0.000667 s⁻¹
^18F-activity in blood bound to erythrocytes ([2]; stable from 10 to 120 min p.i.): ≈ 30%
^18F-activity in blood located in the plasma fraction ([2]; stable from 10 to 120 min p.i.): ≈ 60%
tumor/muscle ratio [3]: 1.4
activity uptake kidneys ([4]; 5 min p.i.): 7.9 %ID/g
activity uptake liver ([4]; 5 min p.i.): 15.7 %ID/g
activity uptake femur ([4]; 60 min p.i.): 3.9 %ID/g
injected activity in intestinal content ([4]; 60 min p.i.): 50 %ID
injected activity in urine ([4]; 60 min p.i.): 19 %ID
